Test results published in ChEMBL document CHEMBL1201862, “PubChem BioAssay data set” (2004).
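1) Cells in 96-well plates. 2) Compound, 48 h, 5 concentrations. 3) Linear interpolation between surrounding doses. 4) Unreached endpoint = highest concentration. GI50: concentration for 50% inhibition of growth.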 Activity calls are given as the source filed them. Cut-off read from the data, not from the text of the source: active = GI50 up to about 1.1 µM and inactive = higher.

How the values were obtained:
Experiment in all cases: growth of human tumour cells (NCI), 48 h
[1] = tested on: 786-0
[2] = tested on: A549
[3] = tested on: ACHN
[4] = tested on: CAKI-1
[5] = tested on: CCRF-CEM
[6] = tested on: COLO 205
[7] = tested on: HL-60
[8] = tested on: HOP-62
[9] = tested on: HOP-92
[10] = tested on: IGROV-1
[11] = tested on: K562
[12] = tested on: M14
[13] = tested on: MCF7
[14] = tested on: MDA-MB-435
[15] = tested on: MOLT-4
[16] = tested on: Malme-3M
[17] = tested on: NCI-H23
[18] = tested on: NCI-H460
[19] = tested on: NCI/ADR-RES
[20] = tested on: OVCAR-4
[21] = tested on: RPMI-8226
[22] = tested on: RXF 393
[23] = tested on: SF-268
[24] = tested on: SK-MEL-28
[25] = tested on: SK-MEL-2
[26] = tested on: SK-MEL-5
[27] = tested on: SK-OV-3
[28] = tested on: SNB-75
[29] = tested on: SR
[30] = tested on: SW-620
[31] = tested on: T47D
[32] = tested on: U-251
[33] = tested on: UACC-62
[34] = tested on: A498
[35] = tested on: BT-549
[36] = tested on: DU-145
[37] = tested on: EKVX
[38] = tested on: HCC 2998
[39] = tested on: HCT-116
[40] = tested on: HCT-15
[41] = tested on: HT-29
[42] = tested on: Hs-578T
[43] = tested on: KM12
[44] = tested on: MDA-MB-231
[45] = tested on: MDA-N
[46] = tested on: NCI-H226
[47] = tested on: NCI-H522
[48] = tested on: OVCAR-3
[49] = tested on: OVCAR-5
[50] = tested on: OVCAR-8
[51] = tested on: PC-3
[52] = tested on: SF-295
[53] = tested on: SF-539
[54] = tested on: SN12C
[55] = tested on: SNB-19
[56] = tested on: TK-10
[57] = tested on: UACC-257
[58] = tested on: UO-31
[59] = tested on: LOX IMVI

Measured: GI50

C=CCN1C(=O)CS/C1=N/NC(=O)C(O)(c1ccccc1)c1ccccc1
inactive: [1] > 10 µM | [2] > 10 µM | [3] > 10 µM | [4] > 10 µM | [5] > 10 µM | [6] > 10 µM | [7] > 10 µM | [8] > 10 µM | [9] > 10 µM | [10] > 10 µM | [11] > 10 µM | [12] > 10 µM | [13] > 10 µM | [14] > 10 µM | [15] > 10 µM | [16] > 10 µM | [17] > 10 µM | [18] > 10 µM | [19] > 10 µM | [20] > 10 µM | [21] > 10 µM | [22] > 10 µM | [23] > 10 µM | [24] > 10 µM | [25] > 10 µM | [26] > 10 µM | [27] > 10 µM | [28] > 10 µM | [29] > 10 µM | [30] > 10 µM | [31] > 10 µM | [32] > 10 µM | [33] > 10 µM

CC(C)(CN1CCCCC1)C(=O)CC(SCCS(=O)(=O)O)c1ccc(Cl)cc1 (centres undefined)
inactive: [1] 3.31 µM | [34] 4.26 µM | [2] 6.56 µM | [3] 5.11 µM | [35] 8.04 µM | [4] 6.73 µM | [5] 2.74 µM | [6] 2.86 µM | [36] 9.75 µM | [37] 3.67 µM | [38] 12.3 µM | [39] 3.03 µM | [7] 6.18 µM | [8] 11.5 µM | [9] 2.26 µM | [41] 3.52 µM | [42] 3.2 µM | [10] 6.15 µM | [11] 3.09 µM | [43] 4.31 µM | [12] 3.19 µM | [13] 3.3 µM | [44] 3.1 µM | [14] 3.48 µM | [45] 2.81 µM | [15] 2.92 µM | [16] 5.38 µM | [46] 12 µM | [17] 3.88 µM | [18] 6.41 µM | [47] 2.51 µM | [19] 5.97 µM | [48] 5.22 µM | [20] 3.84 µM | [49] 1.86 µM | [50] 3.23 µM | [51] 4.44 µM | [21] 3.31 µM | [22] 3.1 µM | [53] 2.3 µM | [25] 2.22 µM | [26] 7.41 µM | [27] 15.5 µM | [54] 4.56 µM | [55] 14.8 µM | [28] 4.32 µM | [29] 2.18 µM | [30] 4.1 µM | [56] 6.32 µM | [32] 10.5 µM | [57] 6.67 µM | [33] 4.21 µM | [58] 4.86 µM
2.19 µM: [40]
active: [52] 0.925 µM

CCOC(=O)C1=C(Cl)c2cccnc2C1=O
inactive: [1] 44 µM | [34] > 100 µM | [2] 55.7 µM | [3] 35.4 µM | [35] 45.4 µM | [4] 54.6 µM | [5] 26.4 µM | [6] 43.4 µM | [36] 21.5 µM | [37] 62.5 µM | [38] 61.7 µM | [39] 27.4 µM | [7] > 100 µM | [8] 32.2 µM | [9] > 100 µM | [41] 81.7 µM | [42] 27.7 µM | [10] 52.8 µM | [11] 54.7 µM | [43] > 100 µM | [59] 23.7 µM | [12] 54.2 µM | [13] 38.5 µM | [44] > 100 µM | [14] 28 µM | [45] 34.9 µM | [15] 34 µM | [16] 31.3 µM | [46] > 100 µM | [17] 16.4 µM | [18] > 100 µM | [47] 86.5 µM | [19] > 100 µM | [48] 19.8 µM | [20] > 100 µM | [51] > 100 µM | [21] 87.3 µM | [22] > 100 µM | [23] 55.2 µM | [52] 39.4 µM | [53] 82.6 µM | [24] > 100 µM | [25] > 100 µM | [26] 53.6 µM | [27] > 100 µM | [54] 52.4 µM | [55] 53 µM | [28] 13 µM | [29] 11.4 µM | [30] 30.3 µM | [56] > 100 µM | [32] 35.6 µM | [57] 39.7 µM | [33] > 100 µM | [58] > 100 µM
53.7 µM: [40]

COC(=O)[C@]1(c2cc3ccccc3n2S(=O)(=O)c2ccccc2)CC2CN(C(=O)OCc3ccccc3)C1C1OC(C)(C)OC21 (some centres undefined)
inactive: [1] > 100 µM | [2] 23.9 µM | [3] > 100 µM | [35] > 100 µM | [4] > 100 µM | [5] > 100 µM | [6] > 100 µM | [36] > 100 µM | [37] > 100 µM | [38] > 100 µM | [39] > 100 µM | [7] > 100 µM | [8] > 100 µM | [9] 10.2 µM | [41] > 100 µM | [42] > 100 µM | [10] > 100 µM | [43] > 100 µM | [59] > 100 µM | [12] 80.5 µM | [13] > 100 µM | [44] > 100 µM | [14] > 100 µM | [45] > 100 µM | [15] > 100 µM | [16] 2.09 µM | [46] 93.1 µM | [17] > 100 µM | [18] > 100 µM | [47] 1.31 µM | [19] > 100 µM | [48] > 100 µM | [20] > 100 µM | [49] > 100 µM | [50] > 100 µM | [51] > 100 µM | [21] 60.1 µM | [22] > 100 µM | [52] > 100 µM | [24] 1.26 µM | [25] > 100 µM | [26] > 100 µM | [27] > 100 µM | [54] > 100 µM | [28] 80.4 µM | [30] > 100 µM | [56] > 100 µM | [32] > 100 µM | [57] > 100 µM | [33] > 100 µM | [58] > 100 µM
> 100 µM: [40]

CCCCCCCCCCCCCCCCC(C(=O)O)C(O)(CC(=O)O)C(=O)O (centres undefined)
inactive: [1] 35.2 µM | [34] 21 µM | [3] 40.6 µM | [35] 20.3 µM | [4] 21.4 µM | [5] 27.1 µM | [6] 18.7 µM | [36] 35.6 µM | [37] 20.2 µM | [39] 19.1 µM | [7] 14.8 µM | [8] 17.2 µM | [41] 21.2 µM | [42] 24.1 µM | [10] 22.1 µM | [11] 35.2 µM | [43] 21.2 µM | [59] 26.5 µM | [12] 19.7 µM | [13] 34.9 µM | [44] 27.5 µM | [14] 34.8 µM | [45] 47 µM | [15] 25.5 µM | [16] 58.6 µM | [46] 22.6 µM | [17] 29 µM | [18] 17.5 µM | [19] 57 µM | [48] 18.5 µM | [49] 17.9 µM | [50] 39.1 µM | [51] 19.5 µM | [21] 26.7 µM | [22] 22.1 µM | [23] 28.6 µM | [52] 17.7 µM | [53] 28.1 µM | [24] 23.9 µM | [25] 18.9 µM | [26] 39.1 µM | [27] 17.7 µM | [54] 21.7 µM | [55] 23.9 µM | [28] 20 µM | [29] 24.7 µM | [30] 20 µM | [56] 34.8 µM | [32] 16.7 µM | [57] 34.1 µM | [33] 18.2 µM | [58] 20.3 µM
21.5 µM: [40]
